Biological target: Cdk9/cyclinT1 (Homo sapiens, UniProt P50750)
Test: Cdk9/cyclinT1 IMAP protocol (fluorescence polarization)
Settings: IC-50, CDK9; lower limit of assay 0.0005 micromolar

Sequence of Cdk9/cyclinT1 (P50750 whole entry): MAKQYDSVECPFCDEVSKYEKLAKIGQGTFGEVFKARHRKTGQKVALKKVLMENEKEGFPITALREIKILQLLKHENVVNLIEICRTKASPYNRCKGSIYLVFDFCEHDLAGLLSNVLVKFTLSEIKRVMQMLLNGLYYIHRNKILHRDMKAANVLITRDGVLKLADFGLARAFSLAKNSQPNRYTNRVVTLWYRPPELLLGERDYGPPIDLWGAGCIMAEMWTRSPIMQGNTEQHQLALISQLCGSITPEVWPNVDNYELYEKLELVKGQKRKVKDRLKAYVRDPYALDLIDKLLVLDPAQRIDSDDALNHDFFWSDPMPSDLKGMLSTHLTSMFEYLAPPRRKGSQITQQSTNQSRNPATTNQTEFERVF
Sequence of Cdk9/cyclinT1 (O60563 whole entry partner): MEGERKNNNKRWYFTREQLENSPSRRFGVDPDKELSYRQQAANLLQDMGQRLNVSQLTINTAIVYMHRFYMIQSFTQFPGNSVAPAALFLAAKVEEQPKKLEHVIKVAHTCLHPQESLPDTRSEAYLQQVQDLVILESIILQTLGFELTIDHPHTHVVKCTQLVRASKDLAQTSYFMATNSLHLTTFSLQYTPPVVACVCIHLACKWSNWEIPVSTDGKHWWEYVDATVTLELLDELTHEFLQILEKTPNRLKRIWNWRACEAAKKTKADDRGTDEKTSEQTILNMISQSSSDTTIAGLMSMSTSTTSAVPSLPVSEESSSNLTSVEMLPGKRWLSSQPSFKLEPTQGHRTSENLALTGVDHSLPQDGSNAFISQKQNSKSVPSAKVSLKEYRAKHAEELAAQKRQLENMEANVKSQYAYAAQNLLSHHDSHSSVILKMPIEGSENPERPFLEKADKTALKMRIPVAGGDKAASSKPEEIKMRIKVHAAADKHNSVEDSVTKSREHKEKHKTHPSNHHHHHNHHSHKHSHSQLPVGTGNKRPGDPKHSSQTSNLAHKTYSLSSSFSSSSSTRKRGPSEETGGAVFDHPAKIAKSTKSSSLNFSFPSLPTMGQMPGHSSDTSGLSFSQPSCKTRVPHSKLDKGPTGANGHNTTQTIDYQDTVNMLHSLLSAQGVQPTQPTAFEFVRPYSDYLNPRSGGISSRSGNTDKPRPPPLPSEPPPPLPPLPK

In the case of N#CC1(CNc2cccc(-c3cc(N[C@H]4CC[C@H](CNS(=O)(=O)c5ccccc5)CC4)ncc3Cl)n2)CCOCC1 [Compound 496, N-((trans-4-((5′-chloro-6-(((4-cyanotetrahydro-2H-pyran-4-yl)methyl)amino)-[2,4′-bipyridin]-2′-yl)amino)cyclohexyl)methyl) benzenesulfonamide], the IC50 is reported as less than 0.5 nM.

With COCCN(CCOC)[C@H]1CC[C@H](Nc2cc(-c3cccc(NCC4(C#N)CCOCC4)n3)c(Cl)cn2)CC1 [Compound 446, 4-(((2′-((trans-4-(bis(2-methoxyethyl)amino)cyclohexyl)amino)-5′-chloro-[2,4′-bipyridin]-6-yl)amino)methyl)tetrahydro-2H-pyran-4-carbonitrile] the IC50 was less than 0.5 nM.

For N#CC1(CNc2cccc(-c3cc(N[C@H]4CC[C@H](NCCC(F)(F)F)CC4)ncc3Cl)n2)CCOCC1 [Compound 433, 4-(((5′-chloro-2′-((trans-4-((3,3,3-trifluoropropyl)amino)cyclohexyl)amino)-[2,4′-bipyridin]-6-yl)amino)methyl)tetrahydro-2H-pyran-4-carbonitrile], the IC50 was 0.6 nM.

For COC[C@H](C)N[C@H]1CC[C@H](Nc2cc(-c3ccc(F)c(NCC4(C#N)CCOCC4)n3)c(Cl)cn2)CC1 [Compound 458, 4-(((5′-chloro-5-fluoro-2′-((trans-4-(((S)-1-methoxypropan-2-yl)amino)cyclohexyl)amino)-[2,4′-bipyridin]-6-yl)amino)methyl)tetrahydro-2H-pyran-4-carbonitrile], the IC50 was less than 0.5 nM.

For CN(C)C(=O)NC[C@H]1CC[C@H](Nc2cc(-c3cccc(NCC4(C#N)CCOCC4)n3)c(Cl)cn2)CC1 [Compound 499, 3-((trans-4-((5′-chloro-6-(((4-cyanotetrahydro-2H-pyran-4-yl)methyl)amino)-[2,4′-bipyridin]-2′-yl)amino)cyclohexyl)methyl)-1,1-dimethylurea], the IC50 was 0.6 nM.

Compound N#CC1(CNc2cccc(-c3cc(N[C@H]4CC[C@H](NC[C@@H]5CCCO5)CC4)ncc3F)n2)CCOCC1 [Compound 483, 4-(((5′-fluoro-2′-((trans-4-((((S)-tetrahydrofuran-2-yl)methyl)amino)cyclohexyl)amino)-[2,4′-bipyridin]-6-yl)amino)methyl)tetrahydro-2H-pyran-4-carbonitrile] has an IC50 of less than 0.5 nM.

In the case of COCCNC(=O)[C@H]1CC[C@H](Nc2cc(-c3cccc(NCC4(C#N)CCOCC4)n3)c(Cl)cn2)CC1 [Compound 455, trans-4-((5′-chloro-6-(((4-cyanotetrahydro-2H-pyran-4-yl)methyl)amino)-[2,4′-bipyridin]-2′-yl)amino)-N-(2-methoxyethyl)cyclohexane-carboxamide], the IC50 is reported as 0.8 nM.

COCC(C)(C)N[C@H]1CC[C@H](Nc2cc(-c3cccc(NCC4(C#N)CCOCC4)n3)c(Cl)cn2)CC1 [Compound 454, 4-(((5′-chloro-2′-((trans-4-((1-methoxy-2-methylpropan-2-yl)amino)cyclohexyl)amino)-[2,4′-bipyridin]-6-yl)amino)methyl)tetrahydro-2H-pyran-4-carbonitrile] gave an IC50 of 2 nM.

C[C@@H]1COCCN1[C@H]1CC[C@H](Nc2cc(-c3cccc(NCC4(C#N)CCOCC4)n3)c(Cl)cn2)CC1 [Compound 503, 4-(((5′-chloro-2′-((trans-4-((R)-3-methylmorpholino)cyclohexyl)amino)-[2,4′-bipyridin]-6-yl)amino)methyl)tetrahydro-2H-pyran-4-carbonitrile] gave an IC50 of 2.6 nM.

CC(C)S(=O)(=O)NC[C@H]1CC[C@H](Nc2cc(-c3cccc(NCC4(C#N)CCOCC4)n3)c(Cl)cn2)CC1 [Compound 495, N-((trans-4-((5′-chloro-6-(((4-cyanotetrahydro-2H-pyran-4-yl)methyl)amino)-[2,4′-bipyridin]-2′-yl)amino)cyclohexyl)methyl) propane-2-sulfonamide] gave an IC50 of less than 0.5 nM.

Work on N#CC1(CNc2cccc(-c3cc(N[C@H]4CC[C@H](N5CCOCC5)CC4)ncc3Cl)n2)CCOCC1 [Compound 442, 4-(((5′-chloro-2′-((trans-4-morpholinocyclohexyl)amino)-[2,4′-bipyridin]-6-yl)amino)methyl)tetrahydro-2H-pyran-4-carbonitrile] yielded an IC50 of 0.6 nM.

Work on CS(=O)(=O)CCN[C@H]1CC[C@H](Nc2cc(-c3cccc(NCC4(C#N)CCOCC4)n3)c(Cl)cn2)CC1 [Compound 422, 4-(((5′-chloro-2′-((trans-4-((2-(methylsulfonyl)ethyl)amino)cyclohexyl)amino)-[2,4′-bipyridin]-6-yl)amino)methyl)tetrahydro-2H-pyran-4-carbonitrile] yielded an IC50 of less than 0.5 nM.

Compound CC1(CNc2nc(-c3cc(N[C@H]4CC[C@@H](N)CC4)ncc3Cl)ccc2F)CCOCC1 [Compound 466] has an IC50 of 3.9 nM.

For N#CC1(CNc2cccc(-c3cc(N[C@H]4CC[C@H](NCC5CCCO5)CC4)ncc3Cl)n2)CCOCC1 (stereo partly drawn) [Compound 468, 4-(((5′-chloro-2′-((trans-4-(((tetrahydrofuran-2-yl)methyl)amino)cyclohexyl)amino)-[2,4′-bipyridin]-6-yl)amino)methyl)tetrahydro-2H-pyran-4-carbonitrile], the IC50 was less than 0.5 nM.

For COC[C@H](C)N[C@H]1CC[C@H](Nc2cc(-c3ccc(F)c(NC[C@H]4CCOC(C)(C)C4)n3)c(Cl)cn2)CC1 [Compound 463, 5′-chloro-N6-(((S)-2,2-dimethyltetrahydro-2H-pyran-4-yl)methyl)-5-fluoro-N2′-(trans-4-(((S)-1-methoxypropan-2-yl)amino)cyclohexyl)-[2,4′-bipyridine]-2′,6-diamine], the IC50 was 1.9 nM.

N#CC1(CNc2cccc(-c3cc(N[C@H]4CC[C@@H](O)C4)ncc3Cl)n2)CCOCC1 (relative stereo) [Example 404] showed an IC50 of less than 0.5 nM.

N#CC1(CNc2cccc(-c3cc(NCC4CCOCC4)ncc3Cl)n2)CCOCC1 [Compound 441, 4-(((5′-chloro-2′-(((tetrahydro-2H-pyran-4-yl)methyl)amino)-[2,4′-bipyridin]-6-yl)amino)methyl)tetrahydro-2H-pyran-4-carbonitrile] showed an IC50 of 3 nM.

In the case of CO[C@@H]1CCN([C@H]2CC[C@@H](Nc3cc(-c4cccc(NCC5(C#N)CCOCC5)n4)c(Cl)cn3)CC2)C1 [Compound 478, 4-(((5′-chloro-2′-((cis-4-((R)-3-methoxypyrrolidin-1-yl)cyclohexyl)amino)-[2,4′-bipyridin]-6-yl)amino)methyl)tetrahydro-2H-pyran-4-carbonitrile], the IC50 is reported as 19 nM.

Compound COC[C@]1(O)CC[C@@H](Nc2cc(-c3cccc(NCC4(C#N)CCOCC4)n3)c(Cl)cn2)CC1 [Compound 448, 4-(((5′-chloro-2′-((cis-4-hydroxy-4-(methoxymethyl)cyclohexyl)amino)-[2,4′-bipyridin]-6-yl)amino)methyl)tetrahydro-2H-pyran-4-carbonitrile] has an IC50 of 1.1 nM.

For N#CC1(CNc2cccc(-c3cc(N[C@H]4CC[C@H](NCC(N)=O)CC4)ncc3Cl)n2)CCOCC1 [Compound 419, 2-((trans-4-((5′-chloro-6-(((4-cyanotetrahydro-2H-pyran-4-yl)methyl)amino)-[2,4′-bipyridin]-2′-yl)amino)cyclohexyl)amino) acetamide], the IC50 was less than 0.5 nM.

N#CC1(CNc2cccc(-c3cc(N[C@H]4CC[C@H](N)CC4)ncc3Cl)n2)CCOCC1 [Compound 464, 4-(((2′-((trans-4-aminocyclohexyl)amino)-5′-chloro-[2,4′-bipyridin]-6-yl)amino)methyl)tetrahydro-2H-pyran-4-carbonitrile] showed an IC50 of less than 0.5 nM.
